From patent US7612211B2, “Benzimidazole TRPV1 inhibitors” (Janssen Pharmaceutica N.V., priority 2006, dated 2009) come the findings set out here.

The assay deals with T1, hTRPV1 (Homo sapiens, UniProt Q8NER1).
T1 construct: expressed in transfected cells; host or cells: HEK293
As to the kind of experiment: Human TRPV1 (hTRPV1) functional assay, FLIPR intracellular Ca2+, capsaicin challenge. It counts as cell-based. The conditions noted are these: HEK293 cells expressing hTRPV1, capsaicin 0.030 μM challenge; for inhibition at 0.2 µM: test concentration of 0.2 μm, read-out: percent inhibition (symbol b); for inhibition at 0.5 µM: test concentration of 0.5 μm, read-out: percent inhibition (symbol a); for IC50: derived from a variety of test concentrations, read-out: IC50 value (symbol c). In short, it runs like this: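 HEK293 cells expressing the channel, loaded with Calcium 3 dye, were exposed to compounds for 5 min before capsaicin 0.030 μM (~80% maximal). FLIPR Ca2+ read; IC50/EC50 from quadruplicate concentration-response, or percent inhibition at 0.5 μm or 0.2 μm.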

T1 sequence (Q8NER1 whole entry): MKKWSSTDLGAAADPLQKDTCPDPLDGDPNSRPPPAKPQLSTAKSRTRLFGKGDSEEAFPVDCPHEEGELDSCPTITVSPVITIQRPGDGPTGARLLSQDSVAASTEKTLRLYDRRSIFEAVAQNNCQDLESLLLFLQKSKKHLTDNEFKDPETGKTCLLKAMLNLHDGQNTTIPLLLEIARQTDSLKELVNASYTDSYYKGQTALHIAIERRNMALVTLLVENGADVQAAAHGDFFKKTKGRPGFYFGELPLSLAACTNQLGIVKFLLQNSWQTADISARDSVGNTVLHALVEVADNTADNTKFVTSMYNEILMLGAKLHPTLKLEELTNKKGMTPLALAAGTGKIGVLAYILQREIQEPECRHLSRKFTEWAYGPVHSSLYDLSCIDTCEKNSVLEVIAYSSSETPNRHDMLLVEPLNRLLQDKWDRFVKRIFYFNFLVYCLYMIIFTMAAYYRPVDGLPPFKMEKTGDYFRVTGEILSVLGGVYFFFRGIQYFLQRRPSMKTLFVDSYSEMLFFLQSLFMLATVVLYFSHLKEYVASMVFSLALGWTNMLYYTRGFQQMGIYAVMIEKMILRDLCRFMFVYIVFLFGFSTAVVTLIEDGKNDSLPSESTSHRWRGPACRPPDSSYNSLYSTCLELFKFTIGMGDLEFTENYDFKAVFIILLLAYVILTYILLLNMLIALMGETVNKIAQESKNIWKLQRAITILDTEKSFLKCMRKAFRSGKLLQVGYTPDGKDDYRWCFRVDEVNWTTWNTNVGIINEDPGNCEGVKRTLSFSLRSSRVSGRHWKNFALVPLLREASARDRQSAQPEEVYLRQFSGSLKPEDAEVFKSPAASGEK

As usually defined, the inhibition is the percentage by which the read-out fell short of the control. Regarding `CS(=O)(=O)c1ccccc1-c1ccc2[nH]c(COc3ccccc3F)nc2c1` [Cpd 54, 2-(2-fluoro-phenoxymethyl)-5-(2-methanesulfonyl-phenyl)-1H-benzoimidazole], the inhibition at 0.2 µM came to 4%. For the compound `NS(=O)(=O)c1ccccc1-c1ccc2[nH]c(CS(=O)(=O)c3ccc(Cl)cc3)nc2c1` [Cpd 45, 2-[2-(4-chloro-benzenesulfonylmethyl)-1H-benzoimidazol-5-yl]-benzenesulfonamide], the inhibition at 0.2 µM turned out to be 2%. For `CS(=O)(=O)c1ccccc1-c1ccc2[nH]c(COc3cc(F)c(F)cc3F)nc2c1` [Cpd 69, 5-(2-methanesulfonyl-phenyl)-2-(2,4,5-trifluoro-phenoxymethyl)-1H-benzoimidazole], the inhibition at 0.2 µM was 21%. Same read-out and setting: to `CS(=O)(=O)c1ccccc1-c1ccc2[nH]c(COc3ccc(F)cc3F)nc2c1` [Cpd 62, 2-(2,4-difluoro-phenoxymethyl)-5-(2-methanesulfonyl-phenyl)-1H-benzoimidazole] belongs 24%. With `CS(=O)(=O)Nc1ccc(-c2ccc3[nH]c(COc4ccc(C(F)(F)F)cc4)nc3c2)cc1` [Cpd 103, N-{4-[2-(4-trifluoromethyl-phenoxymethyl)-1H-benzoimidazol-5-yl]-phenyl}-methanesulfonamide], the inhibition at 0.5 µM was 7%. As to `NS(=O)(=O)c1ccccc1-c1ccc2[nH]c(COc3ccc(C(F)(F)F)cn3)nc2c1` [Cpd 39, 2-[2-(5-trifluoromethyl-pyridin-2-yloxymethyl)-1H-benzoimidazol-5-yl]-benzenesulfonamide], the inhibition at 0.5 µM was 5%.

By IC50 is commonly meant the concentration that gives 50% inhibition. As for `NS(=O)(=O)c1ccccc1-c1ccc2[nH]c(COc3cccc(C(F)(F)F)c3)nc2c1` [Cpd 13, 2-[2-(3-trifluoromethyl-phenoxymethyl)-1H-benzoimidazol-5-yl]-benzenesulfonamide], the half-maximal inhibitory concentration (IC50) turned out to be 0.061 µM.

Turning to `OCc1cccc(-c2ccc3[nH]c(COc4ccc(C(F)(F)F)cc4)nc3c2)c1` [Cpd 117, {3-[2-(4-trifluoromethyl-phenoxymethyl)-1H-benzoimidazol-5-yl]-phenyl}-methanol], the inhibition at 0.5 µM was 13%. Turning to `OCC(O)c1ccccc1-c1ccc2[nH]c(COc3ccc(C(F)(F)F)cc3)nc2c1` (stereo not shown) [Cpd 150, 1-{2-[2-(4-trifluoromethyl-phenoxymethyl)-1H-benzoimidazol-5-yl]-phenyl}-ethane-1,2-diol], the IC50 worked out at 0.016 µM and the inhibition at 0.2 µM worked out at 99%. In the case of `NS(=O)(=O)c1ccccc1-c1ccc2[nH]c(COc3ccc(F)c(F)c3)nc2c1` [Cpd 10, 2-[2-(3,4-difluoro-phenoxymethyl)-1H-benzoimidazol-5-yl]-benzenesulfonamide], the IC50 was found to be 0.12 µM. Take `CS(=O)(=O)c1ccccc1-c1ccc2[nH]c(COc3ccc4c(c3)CCCC4)nc2c1` [Cpd 87, 5-(2-methanesulfonyl-phenyl)-2-(5,6,7,8-tetrahydro-naphthalen-2-yloxymethyl)-1H-benzoimidazole]: the 50% inhibitory concentration (IC50) is 0.014 µM and the inhibition at 0.2 µM is 96%. Consider `NS(=O)(=O)c1ccccc1-c1ccc2[nH]c(COc3ccc(Br)cc3)nc2c1` [Cpd 8, 2-[2-(4-bromo-phenoxymethyl)-1H-benzoimidazol-5-yl]-benzenesulfonamide], for which the IC50 was 0.0066 µM. For the compound `NS(=O)(=O)c1ccccc1-c1ccc2[nH]c(COc3ccncc3)nc2c1` [Cpd 38, 2-[2-(pyridin-4-yloxymethyl)-1H-benzoimidazol-5-yl]-benzenesulfonamide], the inhibition at 0.5 µM was found to be 13%. Consider `CC(C)(O)CS(=O)(=O)c1ccccc1-c1ccc2[nH]c(COc3ccc(C(F)(F)F)cc3)nc2c1` [Cpd 159, 2-methyl-1-{2-[2-(4-trifluoromethyl-phenoxymethyl)-1H-benzoimidazol-5-yl]-benzenesulfonyl}-propan-2-ol], for which the IC50 was 0.022 µM and the inhibition at 0.2 µM is 90%.

`NS(=O)(=O)c1ccccc1-c1ccc2[nH]c(COc3ccccc3F)nc2c1` [Cpd 3, 2-[2-(2-fluoro-phenoxymethyl)-1H-benzoimidazol-5-yl]-benzenesulfonamide]: the inhibition at 0.5 µM was 43%. With `NS(=O)(=O)c1ccc(C(F)(F)F)cc1-c1ccc2[nH]c(COc3ccc(C(F)(F)F)cc3)nc2c1` [Cpd 132, 4-trifluoromethyl-2-[2-(4-trifluoromethyl-phenoxymethyl)-1H-benzoimidazol-5-yl]-benzenesulfonamide], the IC50 turned out to be 0.085 µM and the inhibition at 0.5 µM stood at 100%.

`CS(=O)(=O)c1ccccc1-c1ccc2[nH]c(COc3cccc(Br)c3)nc2c1` [Cpd 60, 2-(3-bromo-phenoxymethyl)-5-(2-methanesulfonyl-phenyl)-1H-benzoimidazole]: the inhibition at 0.2 µM is 49%. Consider `CS(=O)(=O)c1ccccc1-c1ccc2[nH]c(COc3ccc4ccccc4c3)nc2c1` [Cpd 80, 5-(2-methanesulfonyl-phenyl)-2-(naphthalen-2-yloxymethyl)-1H-benzoimidazole], for which the IC50 amounted to 0.014 µM and the inhibition at 0.2 µM amounted to 99%. In the case of `CS(=O)(=O)c1ccc(-c2ccc3[nH]c(COc4ccc(C(F)(F)F)cc4)nc3c2)cc1` [Cpd 100, 5-(4-methanesulfonyl-phenyl)-2-(4-trifluoromethyl-phenoxymethyl)-1H-benzoimidazole], the inhibition at 0.5 µM came out at 13%.

For `CN(Cc1ccc(C(F)(F)F)cc1)c1nc2cc(-c3ccccc3S(N)(=O)=O)ccc2[nH]1` [Cpd 137, 2-{2-[methyl-(4-trifluoromethyl-benzyl)-amino]-1H-benzoimidazol-5-yl}-benzenesulfonamide], the inhibition at 0.5 µM amounted to 37%. As for `CNS(=O)(=O)c1ccccc1-c1ccc2[nH]c(COc3ccc(C4CC4)cc3)nc2c1` [Cpd 165, 2-[2-(4-cyclopropyl-phenoxymethyl)-1H-benzoimidazol-5-yl]-N-methyl-benzenesulfonamide], the IC50 was found to be 0.006 µM and the inhibition at 0.2 µM worked out at 98%. In the case of `CC(C)(C)C(O)c1ccccc1-c1ccc2[nH]c(COc3ccc(C(F)(F)F)cc3)nc2c1` (stereo not shown) [Cpd 145, 2,2-dimethyl-1-{2-[2-(4-trifluoromethyl-phenoxymethyl)-1H-benzoimidazol-5-yl]-phenyl}-propan-1-ol], the inhibition at 0.2 µM is 12%.

As to `CS(=O)(=O)c1ccccc1-c1ccc2[nH]c(COc3ccccc3Cl)nc2c1` [Cpd 57, 2-(2-chloro-phenoxymethyl)-5-(2-methanesulfonyl-phenyl)-1H-benzoimidazole], the inhibition at 0.2 µM was 14%. For the compound `CS(=O)(=O)c1ccccc1-c1ccc2[nH]c(COc3ccc(SC(F)(F)F)cc3)nc2c1` [Cpd 82, 5-(2-methanesulfonyl-phenyl)-2-(4-trifluoromethanesulfide-phenoxymethyl)-1H-benzoimidazole], the IC50 was determined as 0.007 µM and the inhibition at 0.2 µM worked out at 99%. Regarding `O=S(=O)(CCO)c1ccccc1-c1ccc2[nH]c(COc3ccc(S(=O)(=O)C(F)(F)F)cc3)nc2c1` [Cpd 161, 2-{2-[2-(4-trifluoromethanesulfonyl-phenoxymethyl)-1H-benzoimidazol-5-yl]-benzenesulfonyl}-ethanol], the inhibition at 0.2 µM came to 63%.

Take `NS(=O)(=O)c1ccccc1-c1ccc2[nH]c(COc3ccc(F)c(C(F)(F)F)c3)nc2c1` [Cpd 12, 2-[2-(4-fluoro-3-trifluoromethyl-phenoxymethyl)-1H-benzoimidazol-5-yl]-benzenesulfonamide]: the 50% inhibitory concentration (IC50) was determined as 0.018 µM. As for `CS(=O)(=O)c1ccccc1-c1ccc2[nH]c(COc3ccccc3)nc2c1` [Cpd 53, 5-(2-methanesulfonyl-phenyl)-2-phenoxymethyl-1H-benzoimidazole], the inhibition at 0.2 µM was 17%.

Turning to `Cc1cccc(-c2ccc3[nH]c(COc4ccc(C(F)(F)F)cc4)nc3c2)c1` [Cpd 108, 5-m-tolyl-2-(4-trifluoromethyl-phenoxymethyl)-1H-benzoimidazole], the inhibition at 0.5 µM is 10%. With `CS(=O)(=O)c1ccccc1-c1ccc2[nH]c(COc3ccc4c(c3)OCO4)nc2c1` [Cpd 92, 2-(benzo[1,3]dioxol-5-yloxymethyl)-5-(2-methanesulfonyl-phenyl)-1H-benzoimidazole], the half-inhibitory concentration (IC50) worked out at 0.086 µM and the inhibition at 0.2 µM is 76%.

On to `NS(=O)(=O)c1ccccc1-c1ccc2[nH]c(CSc3ccc(OC(F)(F)F)cc3)nc2c1` [Cpd 43, 2-[2-(4-trifluoromethoxy-phenylsulfanylmethyl)-1H-benzoimidazol-5-yl]-benzenesulfonamide], for which the IC50 came out at 0.123 µM and the inhibition at 0.2 µM amounted to 87%. For `CC(=O)c1ccccc1-c1ccc2[nH]c(COc3ccc(C(F)(F)F)cc3)nc2c1` [Cpd 49, 1-{2-[2-(4-trifluoromethyl-phenoxymethyl)-1H-benzoimidazol-5-yl]-phenyl}-ethanone] the same measures were 0.106 µM and 89%. Turning to `COC(=O)c1cccc(-c2ccc3[nH]c(COc4ccc(C(F)(F)F)cc4)nc3c2)c1` [Cpd 130, 3-[2-(4-trifluoromethyl-phenoxymethyl)-1H-benzoimidazol-5-yl]-benzoic acid methyl ester], the inhibition at 0.5 µM stood at 11%. As to `NS(=O)(=O)c1ccccc1-c1ccc2[nH]c(COc3ccc(Cl)c(C(F)(F)F)c3)nc2c1` [Cpd 30, 2-[2-(4-chloro-3-trifluoromethyl-phenoxymethyl)-1H-benzoimidazol-5-yl]-benzenesulfonamide], the IC50 came to 0.013 µM and the inhibition at 0.5 µM came out at 99%. As for `CC(O)c1ccccc1-c1ccc2[nH]c(COc3ccc(C(F)(F)F)cc3)nc2c1` (stereo not shown) [Cpd 110, 1-{2-[2-(4-trifluoromethyl-phenoxymethyl)-1H-benzoimidazol-5-yl]-phenyl}-ethanol], the IC50 came to 0.058 µM and the inhibition at 0.5 µM worked out at 98%.
